Assay results as given in US6737383B1, “Herbicidal oxadiazolidines” (priority 1999, dated 2004).

Key:
[1] = test system: morningglory; experiment: Test B pre/postemergence morningglory; assay type: in vivo, Ipomoea hederacea
Procedure, shortened: (§1)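 Test chemicals in a non-phytotoxic solvent mixture with surfactant were sprayed preemergence onto planted seeds and postemergence onto plants 2 to 18 cm tall (1- to 4-leaf stage). After twelve to sixteen days in a greenhouse, injury was visually rated against untreated controls from 0 (no effect) to 10 (complete control).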

[2] = test system: bedstraw; experiment: Test B pre/postemergence bedstraw; assay type: in vivo, Galium aparine; details: Preemergence
Procedure, shortened: as §1

[3] = test system: bamyardgrass; experiment: Test B flood test barnyardgrass; assay type: in vivo, Echinochloa crus-galli
Procedure, shortened: (§2)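 Read-out is a visual response score from 0 (no effect) to 10 (complete control), assigned by comparison with untreated controls. Treatment was applied at the 2-leaf stage, and plants stayed in the greenhouse for twelve to sixteen days before scoring.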

[4] = test system: wheat; experiment: Test B pre/postemergence wheat; assay type: in vivo, Triticum aestivum
Procedure, shortened: as §1

[5] = test system: soybean; experiment: Test B pre/postemergence soybean; assay type: in vivo, Glycine max
Procedure, shortened: as §1

[6] = test system: corn; experiment: Test B pre/postemergence corn; assay type: in vivo, Zea mays
Procedure, shortened: as §1

[7] = test system: crabgrass; experiment: Test B pre/postemergence crabgrass; assay type: in vivo, Digitaria sanguinalis
Procedure, shortened: as §1

[8] = test system: rape; experiment: Test B pre/postemergence rape; assay type: in vivo, Brassica napus
Procedure, shortened: as §1

[9] = test system: wild oat; experiment: Test B pre/postemergence wild oat; assay type: in vivo, Avena fatua
Procedure, shortened: as §1

[10] = test system: smallflower flatsedge; experiment: Test B flood test smallflower flatsedge; assay type: in vivo, Cyperus difformis
Procedure, shortened: as §2

[11] = test system: rice; experiment: Test B flood test rice; assay type: in vivo, Oryza sativa
Procedure, shortened: as §2

[12] = test system: surinam grass; experiment: Test B pre/postemergence surinam grass; assay type: in vivo, Brachiaria decumbens
Procedure, shortened: as §1

[13] = test system: duck salad; experiment: Test B flood test duck salad; assay type: in vivo, Heteranthera limosa
Procedure, shortened: as §2

[14] = test system: blackgrass; experiment: Test B pre/postemergence blackgrass; assay type: in vivo, Alopecurus myosuroides
Procedure, shortened: as §1

[15] = test system: sugar beet; experiment: Test B pre/postemergence sugar beet; assay type: in vivo, Beta vulgaris
Procedure, shortened: as §1

[16] = test system: purple nutsedge; experiment: Test B pre/postemergence purple nutsedge; assay type: in vivo, Cyperus rotundus
Procedure, shortened: as §1

[17] = test system: pigweed; experiment: Test B pre/postemergence pigweed; assay type: in vivo, Amaranthus retroflexus
Procedure, shortened: as §1

[18] = test system: velvetleaf; experiment: Test B pre/postemergence velvetleaf; assay type: in vivo, Abutilon theophrasti
Procedure, shortened: as §1

[19] = test system: cocklebur; experiment: Test B pre/postemergence cocklebur; assay type: in vivo, Xanthium strumarium
Procedure, shortened: as §1

[20] = test system: giant foxtail; experiment: Test B pre/postemergence giant foxtail; assay type: in vivo, Setaria faberii
Procedure, shortened: as §1

[21] = Postemergence, Rate 62 g/ha, scale of 0 to 10, 0 is no effect, 10 is complete control
[22] = Postemergence, Rate 125 g/ha, scale of 0 to 10 where 0 is no effect and 10 is complete control
[23] = Postemergence, Rate 250 g/ha, scale of 0 to 10, 0 is no effect, 10 is complete control
[24] = Postemergence, Rate 500 g/ha, scale of 0 to 10 where 0 is no effect and 10 is complete control
[25] = Preemergence, Rate 62 g/ha, scale 0 to 10 (0 no effect, 10 complete control)
[26] = Preemergence, Rate 125 g/ha, scale of 0 to 10 where 0 is no effect and 10 is complete control
[27] = Preemergence, Rate 500 g/ha, scale of 0 to 10 where 0 is no effect and 10 is complete control
[28] = Rate 62 g/ha, flood test species, Pre-emergence, visual evaluation after twelve to sixteen days
[29] = Rate 125 g/ha, under heading Pre-emergence, flood test species, visual evaluation after twelve to sixteen days
[30] = Rate 250 g/ha, Pre-emergence (flood test species), scale 0 to 10, 0 is no effect, 10 is complete control
[31] = Rate 500 g/ha, Pre-emergence section of Table B, 0 to 10 scale (0 no effect, 10 complete control)

SMILES: COC(C)n1c(=O)on(C(=O)N(c2ccc(F)cc2F)C(C)C)c1=O (stereo not drawn) [Compound 593]
- Morningglory plant response rating [1, 21]: 0
- Plant response rating, Morningglory [1, 22]: 0
- Morningglory plant response rating [1, 23]: 0
- Plant response rating, Morningglory [1, 24]: 2
- Morningglory plant response rating [1, 25]: 0
- Morningglory plant response rating [1, 26]: 0
- Plant response rating, Morningglory [1, 27]: 0
- Bedstraw plant response rating ([2]; Rate 62 g/ha, scale 0 to 10 (0 no effect, 10 complete control)): 0
- Bedstraw plant response rating (0 to 10 scale) ([2]; Rate 250 g/ha): 0
- Plant response rating, Barnyardgrass (0 to 10 scale, 0 is no effect, 10 is complete control) [3, 28]: 0
- Barnyardgrass plant response rating (0 to 10 scale, 0 is no effect, 10 is complete control) [3, 29]: 0
- Barnyardgrass plant response rating [3, 30]: 0
- Barnyardgrass plant response rating [3, 31]: 0
- Plant response rating, Wheat [4, 22]: 0
- Wheat plant response rating [4, 23]: 0
- Plant response rating, Wheat [4, 24]: 0
- Wheat plant response rating [4, 25]: 0
- Wheat plant response rating [4, 26]: 0
- Plant response rating, Wheat [4, 27]: 0
- Plant response rating, Soybean [5, 22]: 0
- Soybean plant response rating [5, 23]: 0
- Plant response rating, Soybean [5, 24]: 1
- Soybean plant response rating [5, 25]: 0
- Soybean plant response rating [5, 26]: 0
- Plant response rating, Soybean [5, 27]: 0
- Corn plant response rating [6, 21]: 0
- Plant response rating, Corn [6, 22]: 0
- Corn plant response rating [6, 23]: 0
- Plant response rating, Corn [6, 24]: 0
- Corn plant response rating [6, 25]: 0
- Corn plant response rating [6, 26]: 0
- Corn plant response rating (0 to 10 scale) ([6]; Preemergence, Rate 250 g/ha): 0
- Plant response rating, Corn [6, 27]: 0
- Crabgrass plant response rating [7, 21]: 0
- Plant response rating, Crabgrass [7, 22]: 0
- Crabgrass plant response rating [7, 23]: 0
- Crabgrass plant response rating [7, 25]: 0
- Crabgrass plant response rating [7, 26]: 0
- Plant response rating, Crabgrass [7, 27]: 0
- Rape plant response rating [8, 21]: 0
- Plant response rating, Rape [8, 22]: 0
- Rape plant response rating [8, 23]: 0
- Plant response rating, Rape [8, 24]: 0
- Rape plant response rating [8, 25]: 0
- Rape plant response rating [8, 26]: 0
- Plant response rating, Rape [8, 27]: 0
- Plant response rating, Wild oats [9, 22]: 0
- Wild oats plant response rating [9, 23]: 0
- Plant response rating, Wild oats [9, 24]: 0
- Wild oats plant response rating [9, 25]: 0
- Wild oats plant response rating [9, 26]: 0
- Plant response rating, Wild oats [9, 27]: 0
- Plant response rating, S. Flatsedge (0 to 10 scale, 0 is no effect, 10 is complete control) [10, 28]: 0
- S. Flatsedge plant response rating (0 to 10 scale, 0 is no effect, 10 is complete control) [10, 29]: 0
- S. Flatsedge plant response rating [10, 30]: 0
- S. Flatsedge plant response rating [10, 31]: 0
- Plant response rating, Rice (0 to 10 scale, 0 is no effect, 10 is complete control) [11, 28]: 0
- Rice plant response rating (0 to 10 scale, 0 is no effect, 10 is complete control) [11, 29]: 0
- Rice plant response rating [11, 30]: 0
- Rice plant response rating [11, 31]: 0
- B. signalgrass plant response rating [12, 21]: 0
- Plant response rating, B. signalgrass [12, 22]: 0
- B. signalgrass plant response rating [12, 23]: 0
- Plant response rating, B. signalgrass [12, 24]: 0
- B. signalgrass plant response rating [12, 25]: 0
- B. signalgrass plant response rating [12, 26]: 0
- B. signalgrass plant response rating (0 to 10 scale, 0 is no effect, 10 is complete control) ([12]; Preemergence, Rate 250 g/ha): 0
- B. signalgrass plant response rating [12, 27]: 0
- Plant response rating, Ducksalad (0 to 10 scale, 0 is no effect, 10 is complete control) [13, 28]: 0
- Ducksalad plant response rating (0 to 10 scale, 0 is no effect, 10 is complete control) [13, 29]: 0
- Ducksalad plant response rating [13, 30]: 0
- Ducksalad plant response rating [13, 31]: 0
- Blackgrass plant response rating [14, 21]: 0
- Plant response rating, Blackgrass [14, 22]: 0
- Blackgrass plant response rating [14, 23]: 0
- Plant response rating, Blackgrass [14, 24]: 0
- Blackgrass plant response rating [14, 25]: 0
- Blackgrass plant response rating [14, 26]: 0
- Blackgrass plant response rating (0 to 10 scale) ([14]; Preemergence, Rate 250 g/ha): 0
- Blackgrass plant response rating [14, 27]: 0
- Plant response rating, Sugarbeets [15, 22]: 0
- Sugarbeets plant response rating [15, 23]: 0
- Plant response rating, Sugarbeets [15, 24]: 0
- Sugarbeets plant response rating [15, 25]: 0
- Sugarbeets plant response rating [15, 26]: 0
- Plant response rating, Sugarbeets [15, 27]: 0
- Nutsedge plant response rating [16, 21]: 0
- Plant response rating, Nutsedge [16, 22]: 0
- Nutsedge plant response rating [16, 23]: 0
- Plant response rating, Nutsedge [16, 24]: 0
- Nutsedge plant response rating [16, 25]: 0
- Nutsedge plant response rating [16, 26]: 0
- Plant response rating, Nutsedge [16, 27]: 2
- Plant response rating, Redroot pigweed [17, 22]: 0
- Redroot pigweed plant response rating [17, 23]: 0
- Plant response rating, Redroot pigweed [17, 24]: 0
- Redroot pigweed plant response rating [17, 25]: 0
- Redroot pigweed plant response rating [17, 26]: 0
- Plant response rating, Redroot pigweed [17, 27]: 0
- Plant response rating, Velvetleaf [18, 22]: 0
- Velvetleaf plant response rating [18, 23]: 0
- Plant response rating, Velvetleaf [18, 24]: 0
- Velvetleaf plant response rating [18, 25]: 0
- Velvetleaf plant response rating [18, 26]: 0
- Plant response rating, Velvetleaf [18, 27]: 0
- Cocklebur plant response rating [19, 21]: 0
- Plant response rating, Cocklebur [19, 22]: 0
- Cocklebur plant response rating [19, 23]: 0
- Plant response rating, Cocklebur [19, 24]: 0
- Cocklebur plant response rating [19, 25]: 0
- Cocklebur plant response rating [19, 26]: 0
- Cocklebur plant response rating (0 to 10 scale) ([19]; Preemergence, Rate 250 g/ha): 0
- Plant response rating, Cocklebur [19, 27]: 0
- Giant foxtail plant response rating [20, 21]: 0
- Plant response rating, Giant foxtail [20, 22]: 0
- Giant foxtail plant response rating [20, 23]: 0
- Plant response rating, Giant foxtail [20, 24]: 0
- Giant foxtail plant response rating [20, 25]: 0
- Giant foxtail plant response rating [20, 26]: 0
- Plant response rating, Giant foxtail [20, 27]: 0
